One experiment addresses Factor Xa (Homo sapiens, UniProt P00742). As to the kind of experiment: Factor Xa enzyme inhibition assay (purified enzyme). The format is biochemical.
A further experiment deals with thrombin (Homo sapiens, UniProt P00734). In words: Thrombin enzyme inhibition assay (purified enzyme). The class given is biochemical.
The next experiment addresses T1, native Factor XIa (Homo sapiens, UniProt P03951).
T1 construct: cleavage generates the same light chain segment as is found for human Factor XIa protein; purchased Haematological Associates FXIA01
In words: Factor XIa enzyme inhibition assay (fluorogenic substrate pyroGlu-Pro-Arg-AMC). The class given is biochemical. As for the experimental part: Potential inhibitors of Factor XIa were evaluated using a modification of the above assay. […] This substrate had the p-nitroanaline group replaced with 7-methylaminocoumarin (AMC). […] Inhibitors were tested by serial dilution over an appropriate range to yield a dose response curve for determination of the inhibitors' IC50 values. The assay mixture was incubated for 30 minutes at 30° C., and the fluorescent yield was measured using a PE-Wallac Victor 2 Plate Reader. Dose response curves were fit to Equation 1 in which A is the maximum inhibition, B is the minimum inhibition, C is the IC50, and D is the Hill coefficient.
Potential inhibitors of Factor XIa were evaluated using the following assay. […] This substrate had the p-nitroanaline group replaced with 7-methylaminocoumarin (AMC).
Inhibitors were tested by serial dilution over an appropriate range to yield a dose response curve for determination of the inhibitors' IC50 value. The assay mixture was incubated for 30 minutes at 30° C., and the fluorescent yield measured using a PE-Wallac VICTOR2™ Plate Reader. Dose response curves were fit to equation 1 below in which A is the maximum inhibition, B is the minimum inhibition, C is the IC50, and D is the Hill coefficient.

The subject of the next experiment is venous thrombosis. As to the kind of experiment: Rat venous thrombosis model (stenosis of inferior vena cava with hypotonic saline infusion). The class given is in vivo. As for the experimental part: Compound 22 was administered as a continuous intravenous infusion via the femoral vein commenced 15 minutes prior to the thrombotic challenge. Thrombus mass was assessed at 60 minutes following challenge. Results are expressed as the percentage of the vehicle mean.
Briefly, male Sprague-Dawley rats (300–400 g) were anesthetized using ketamine/xylazine I.M. A midline laparotomy was performed, and the vena cava was visualized and gently separated from the descending aorta using cotton swabs. Both iliolumbar veins were ligated with suture (3–0 silk). A loose ligature (3–0 silk) was placed around the vena cava distal to the renal veins. A 25G butterfly bent at a 90-degree angle and attached to a 5 cc syringe filled with 2.5 mL of hypotonic saline (0.225%) was inserted into the vena cava at the level of the iliolumbar veins and glued into place using VETBOND™. A 26G needle bent to a 90-degree angle was then tied tightly to the vena cava, using the loose ligature. An atraumatic clamp was placed on the vena cava proximal to the iliac bifurcation, and the hypotonic saline manually infused at a rate of 10 mL/minutes. The atraumatic clamp was removed, along with the 26G needle, creating a 26G stenosis. Organs were carefully replaced, and animals were kept normothermic until sacrifice. Animals were sacrificed by anesthetic overdose at 10 or 60 minutes post thrombus induction. Following sacrifice, the vena cava was isolated using hemostats, and the clot(s) was dissected out. Clots were removed, blotted on gauze, and then immediately weighed using an analytical balance.
Compounds under investigation along with vehicles and positive controls (heparin, enoxaparin) were administered intravenously via a catheter (PE-50 tubing) implanted in the jugular or femoral vein. In some studies, rats were administered a bolus of the test article (4 mL/kg) via the venous catheter immediately prior to initiation of intravenous infusion (4 mL/kg/h). The rats were subjected to the challenge 15 minutes post bolus/infusion initiation. All test article infusions continued to the end of the study period.
Administration of compound XLXI commenced 15 minutes prior to thrombotic challenge, with determination of thrombus mass at 60 minutes post challenge.

A further experiment deals with rat Factor XIa. In words: Inhibition of rat Factor XIa compared with native human Factor XIa. The format is biochemical. The following applies: rat Factor XIa vs native human Factor XIa.
[1] abbreviates: Table 12, read-out: Thrombin IC50.
[2] abbreviates: Table 12, compounds of formula I (R^0 is 2-thiazole), read-out: FXIa IC50.

Structures are written as SMILES. Where two headings read alike, the source gives them in different places.

T1 sequence (P03951 388-625 limits assumed): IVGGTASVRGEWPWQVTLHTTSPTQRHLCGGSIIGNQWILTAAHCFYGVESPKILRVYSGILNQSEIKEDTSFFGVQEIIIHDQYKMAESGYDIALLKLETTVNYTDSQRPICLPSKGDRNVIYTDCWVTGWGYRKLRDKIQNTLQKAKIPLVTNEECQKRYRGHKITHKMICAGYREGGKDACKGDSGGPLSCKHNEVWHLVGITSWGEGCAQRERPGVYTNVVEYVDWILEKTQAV
T1 sequence (P03951 19-387 partner limits assumed): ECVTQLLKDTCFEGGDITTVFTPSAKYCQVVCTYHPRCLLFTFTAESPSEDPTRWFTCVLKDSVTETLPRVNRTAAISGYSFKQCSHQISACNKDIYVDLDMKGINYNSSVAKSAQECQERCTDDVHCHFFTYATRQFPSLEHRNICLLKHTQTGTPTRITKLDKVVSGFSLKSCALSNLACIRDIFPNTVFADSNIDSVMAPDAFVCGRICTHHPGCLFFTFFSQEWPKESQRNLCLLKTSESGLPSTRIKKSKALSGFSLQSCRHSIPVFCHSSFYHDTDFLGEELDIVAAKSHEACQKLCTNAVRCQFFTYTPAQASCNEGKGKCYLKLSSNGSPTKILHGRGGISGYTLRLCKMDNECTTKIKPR
Chain of Factor Xa (P00742 235-488 limits assumed): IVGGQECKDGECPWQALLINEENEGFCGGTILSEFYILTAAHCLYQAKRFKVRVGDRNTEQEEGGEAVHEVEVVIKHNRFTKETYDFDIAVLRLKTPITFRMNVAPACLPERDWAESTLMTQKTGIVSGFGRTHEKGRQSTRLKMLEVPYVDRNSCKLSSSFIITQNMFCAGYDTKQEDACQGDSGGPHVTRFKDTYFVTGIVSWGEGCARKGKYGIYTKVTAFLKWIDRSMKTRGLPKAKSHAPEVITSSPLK
Chain of Factor Xa (P00742 41-179 partner limits assumed): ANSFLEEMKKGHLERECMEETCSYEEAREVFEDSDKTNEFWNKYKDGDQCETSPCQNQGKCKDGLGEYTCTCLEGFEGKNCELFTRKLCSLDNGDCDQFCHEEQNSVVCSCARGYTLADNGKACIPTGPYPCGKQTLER

With `CC(C)C(NC(=O)C(O)c1cccc(Cl)c1)C(=O)NC(CCCNC(=N)N)C(=O)c1nccs1` (stereo not shown), the 50% inhibitory concentration (IC50) – broadly, the concentration that gives 50% inhibition – at Factor Xa (Table 12, read-out: FXa IC50) came out at 2360 nM; at thrombin (setting [1]) it was 225 nM; at native Factor XIa (setting [2]), 116 nM.
For the molecule `CC(C)C(NC(=O)C(O)c1ccccc1)C(=O)NC(CCCNC(=N)N)C(=O)c1nccs1` (stereo not shown), the 50% inhibitory concentration (IC50) worked out at 1190 nM on Factor Xa (Table 12, read-out: FXa IC50) and 253 nM on thrombin (setting [1]).
With `COC(=O)c1cccc(CS(=O)(=O)NC(C(=O)NC(CC(C)C)C(=O)NC(CCCNC(=N)N)C(=O)c2nccs2)C2CCCCC2)c1` (stereo not shown), the IC50 on Factor Xa (Table 12, read-out: FXa IC50) amounted to 31 nM; on thrombin (setting [1]) it was 20 nM; at native Factor XIa (setting [2]), 5 nM.
`CC(C)CC(NC(=O)NCc1ccc(Cl)c(Cl)c1)C(=O)NC(C(=O)NC(CCCNC(=N)N)C(=O)c1nccs1)C(C)C` (stereo not shown): the half-inhibitory concentration (IC50) was found to be 20000 nM on Factor Xa (Table 12, read-out: FXa IC50); 615 nM on thrombin (setting [1]); 64 nM against native Factor XIa.
For the molecule `CCC(C)C(NC(=O)C(CC(C)C)NC(=O)NCc1ccc(Cl)c(Cl)c1)C(=O)NC(CCCNC(=N)N)C(=O)c1nccs1` (stereo not shown), the figures for the IC50 against Factor Xa, on thrombin and against native Factor XIa were 84900 nM, 2650 nM and 78 nM, respectively.
With `CC(C)[C@H](NC(=O)[C@H](Cc1cccnc1)NC(=O)N[C@H](C)c1ccc(Br)cc1)C(=O)N[C@@H](CCCNC(=N)N)C(=O)c1nccs1` [Compound 22], in the experiment with venous thrombosis (continuous intravenous administration begun 15 minutes before thrombotic challenge, thrombus mass at 60 minutes post challenge), the “effect on thrombus formation” value is listed as “suppressed the thrombus formation”. For the same molecule, the “total dose exposure at which efficacy was observed” value in the experiment with venous thrombosis (continuous intravenous infusion, thrombus mass at 60 minutes post challenge) is listed as 1.4 mg/kg. For the same molecule, the “efficacy in rat model of venous thrombosis” value with venous thrombosis (intravenous) was “statistically significant efficacy”. Moreover, in the experiment on venous thrombosis (total dose exposure 4.0 mg/kg compared with 1.4 mg/kg), the “change in thrombus size at the higher dose” value is recorded as “no further decrease in thrombus size”. In addition, the “specificity for rat Factor XIa relative to native human Factor XIa (fold less)” value in the experiment on rat Factor XIa is recorded as 11 fold.

For the origin of these results see US7217794B2, “Compounds and methods for treatment of thrombosis” (Daiamed, Inc., priority 2003, dated 2007).
